Measurements published in patent publication US9242959B2, “(Aza)benzhydryl ether derivatives, their process of preparation and their use as H4-receptor ligands for therapeutical applications” (BIOPROJET, priority 2012, dated 2016).
Counter-ions that a name gives are not always drawn.

Assays:
human H4 receptor [1] = molecular target: T1, human H4 receptor (Homo sapiens, UniProt Q9H3N8); assay: [3H]Histamine binding assay on membranes of CHO cells stably expressing human H4 receptor
T1 construct: expressed in transfected cells
Experimental: CHO cells stably expressing human H4 receptor were grown until sub-confluence and centrifuged at 300 g 15 minutes at 4° C. Pellets were resuspended in buffer I Tris-HCl 50 mM, MgCl2 10 mM, NaCl 140 mM, pH=7.4 supplemented by a 1/50 dilution of a mix of protease inhibitors. The obtained suspension is stirred gently and submitted to a […] exerted through a syringe. The cell lysate is then centrifuged at 300 g 15 minutes at 4° C. in order to eliminate nucleus and cell scraps. The obtained supernatant was then centrifuged at 48000 g for 30 minutes at 4° C. The final pellet is resuspended in buffer I with a potter homogenizer. Aliquots were frozen in liquid nitrogen and stored until use at −80° C. Protein content is measured by the Bradford method.
Defreezed membranes were diluted at a final concentration of 20 μg/180 μL/well in a binding buffer containing 50 mM Tris/HCl, 0.5 mM EDTA, pH=7.4 and distributed in 96 well polystyrene microplate. [^3H] […] Non specific binding was estimated in the presence of 10 μM BP1.2404 (JNJ 7777120). The reaction was terminated by filtration through GF/B filters pre-soaked 2 hours at 4° C. in 1% polyethyleneimine. Filters were rinsed 3 times with 250 μl of ice cold incubation binding buffer.
The filter-bound radioactivity was measured in a liquid scintillation counter Microbeta TRILUX® with 50 μl of scintillation fluid.
The hH4 binding investigated by use of [^3H]

human H4 receptor [2] = molecular target: T1, human H4 receptor; assay: GTPγ[35S] binding assay on membranes of SH-SY5Y cells stably expressing human H4 receptor; assay type: biochemical
Experimental: SH-SY5Y cells stably expressing human H4 receptor are grown until sub-confluence and centrifuged at 300 g 15 minutes at 4° C. Pellets are resuspended in buffer I Tris-HCl 50 mM, MgCl2 10 mM, NaCl 140 mM, pH=7.4 supplemented by Leupeptin 10 μg/mL, Phenyl Methyl Sulphonyl Fluoride (PMSF) 0.1 mM, Aprotinin 2 μg/mL and Pepstatin 2 μM (or a 1/50 dilution of a mix of protease inhibitors). The obtained suspension is stirred gently and submitted to a […] exerted through a syringe. The cell lysate is then centrifuged at 300 g 15 minutes at 4° C. in order to eliminate nucleus and cell scraps. The obtained supernatant is then centrifuged at 48000 g for 30 minutes at 4° C. The final pellet is resuspended in buffer I with a potter homogenizer. Aliquots are frozen in liquid nitrogen and stored until use at −80° C. Protein content is measured by the Bradford method.
Defreezed membranes are diluted at a final concentration of 5 μg/180 μL/well in buffer I supplemented by GDP 10 μM and distributed in 96 well polystyrene microplate. GTPγ [^35S] labelled ligand (0.2-0.3 nM) is added for additional 30 minutes. After transfer in a Millipore GF/C HTS® microplate, the filtration of the rectional mix is followed by a three times 250 μl wash to stop the reaction.
The filter-bound radioactivity is measured in a liquid scintillation counter Microbeta TRILUX® with 50 μl of scintillation fluid.
Results are expressed with IC50 and Ki values.

T1 sequence (Q9H3N8 whole entry): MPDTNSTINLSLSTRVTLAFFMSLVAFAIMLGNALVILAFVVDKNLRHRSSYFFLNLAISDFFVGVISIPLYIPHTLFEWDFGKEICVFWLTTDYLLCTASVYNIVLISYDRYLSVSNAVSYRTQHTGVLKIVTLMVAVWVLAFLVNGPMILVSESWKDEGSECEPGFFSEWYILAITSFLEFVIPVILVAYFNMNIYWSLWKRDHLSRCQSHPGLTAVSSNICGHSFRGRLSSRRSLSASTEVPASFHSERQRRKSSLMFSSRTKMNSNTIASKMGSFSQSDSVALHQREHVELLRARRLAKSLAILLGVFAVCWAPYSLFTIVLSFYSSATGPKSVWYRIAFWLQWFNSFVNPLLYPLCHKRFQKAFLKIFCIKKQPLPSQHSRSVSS

SMILES | melting point [°C] | Ki (human H4 receptor [1]) [nM] | IC50 (human H4 receptor [2]) [nM]
CN1CCC(OC(c2ccccn2)c2ccccc2O)CC1 (stereo not shown) (as salt: oxalate) [Example 19, 2-[(1-Methylpiperidin-4-yloxy)pyridin-2-ylmethyl]phenol, oxalate] | 70 | – | –
CN1CCC(OC(c2ccccn2)c2cc(OC(F)(F)F)ccc2F)CC1.O=C(O)C(=O)O.O=C(O)C(=O)O (stereo not shown) [Example 1, 2-[(2-Fluoro-5-trifluoromethoxyphenyl)(1-methylpiperidin-4-yloxy)methyl]pyridine, dioxalate] | 45 | < 300 | < 300
Cc1ccc(C(OC2CCN(C)CC2)c2ccc(Cl)cn2)c(F)c1.O=C(O)C(=O)O (stereo not shown) [Example 2, 5-Chloro-2-[(2-fluoro-4-methylphenyl)(1-methylpiperidin-4-yloxy)methyl]pyridine, oxalate] | 165 | < 30 | < 300
Cc1ccc(C(OC2CCN(C)CC2)c2ccccn2)c(F)c1.O=C(O)C(=O)O.O=C(O)C(=O)O (stereo not shown) [Example 3, 2-[(2-Fluoro-4-methylphenyl)(1-methylpiperidin-4-yloxy)methyl]pyridine, dioxalate] | 59 | < 300 | –
CN1CCC(OC(c2ccc(Cl)cn2)c2cc(OC(F)(F)F)ccc2F)CC1.O=C(O)C(=O)O (stereo not shown) [Example 4, 5-Chloro-2-[(2-fluoro-5-trifluoromethoxyphenyl)(1-methylpiperidin-4-yloxy)methyl]pyridine, oxalate] | 75 | < 300 | < 300
CN1CCC(OC(c2cccc(C#CCCCCN)c2)c2ccccn2)CC1 (stereo not shown) [Example 5, 6-{3-[(1-Methylpiperidin-4-yloxy)pyridin-2-ylmethyl]phenyl}hex-5-ynylamine, oxalate] | – | < 300 | < 300
CN1CCC(OC(c2ccncc2)c2cc(OC(F)(F)F)ccc2F)CC1.O=C(O)C(=O)O.O=C(O)C(=O)O (stereo not shown) [Example 6, 4-[(2-Fluoro-5-trifluoromethoxyphenyl)(1-methylpiperidin-4-yloxy)methyl]pyridine, dioxalate] | 61 | < 300 | –
Cc1ccnc(C(OC2CCN(C)CC2)c2cc(OC(F)(F)F)ccc2F)c1.O=C(O)C(=O)O.O=C(O)C(=O)O (stereo not shown) [Example 8, 2-[(2-Fluoro-5-trifluoromethoxyphenyl)(1-methylpiperidin-4-yloxy)methyl]-4-methylpyridine, dioxalate] | 43 | < 300 | –
CN1CCC(OC(c2ccc(Cl)cc2)c2ccc(Cl)cn2)CC1.O=C(O)C(=O)O (stereo not shown) [Example 9, 5-Chloro-2-[(4-chlorophenyl)(1-methylpiperidin-4-yloxy)methyl]pyridine, oxalate] | 190 | < 300 | –
CN1CCC(OC(c2ccc(F)cn2)c2cc(OC(F)(F)F)ccc2F)CC1.O=C(O)C(=O)O (stereo not shown) [Example 11, 5-Fluoro-2-[(2-fluoro-5-trifluoromethoxyphenyl)(1-methylpiperidin-4-yloxy)methyl]pyridine, oxalate] | 113 | < 1000 | –
COc1cccc(C(OC2CCN(C)CC2)c2ccc(Cl)cn2)c1.O=C(O)C(=O)O (stereo not shown) [Example 12, 5-Chloro-2-[(3-methoxyphenyl)(1-methylpiperidin-4-yloxy)methyl]pyridine, oxalate] | 175 | < 1000 | –
CN1CCC(OC(c2cccc(I)c2)c2ccc(Cl)cn2)CC1.O=C(O)C(=O)O (stereo not shown) [Example 13, 5-Chloro-2-[(3-iodophenyl)(1-methylpiperidin-4-yloxy)methyl]pyridine, oxalate] | 130 | < 300 | –
Cc1ccc(C(OC2CCN(C)CC2)c2cc(C(F)(F)F)ccn2)c(F)c1.O=C(O)C(=O)O (stereo not shown) [Example 14, 2-[(2-Fluoro-4-methylphenyl)(1-methylpiperidin-4-yloxy)methyl]-4-trifluoromethylpyridine, oxalate] | 104 | < 300 | –
CN1CCC(OC(c2ccc(F)cn2)c2ccc(F)c(F)c2O)CC1 (stereo not shown) [Example 15, 2,3-Difluoro-6-[(5-fluoropyridin-2-yl)(1-methylpiperidin-4-yloxy)methyl]phenol] | 73 | < 1000 | –
CN1CCC(OC(c2ccc(Cl)cn2)c2ccc(F)c(F)c2O)CC1 (stereo not shown) [Example 16, 6-[(5-Chloropyridin-2-yl)(1-methylpiperidin-4-yloxy)methyl]-2,3-difluorophenol] | 68 | < 300 | –
CCOC(=O)NCCCCC#Cc1cccc(C(OC2CCN(C)CC2)c2ccccn2)c1.O=C(O)C(=O)O (stereo not shown) [Example 17, (6-{3-[(1-Methylpiperidin-4-yloxy)pyridin-2-ylmethyl]phenyl}hex-5-ynyl)carbamic acid ethyl ester, oxalate] | 77 | < 1000 | –
CN1CCC(OC(c2ccccn2)c2ccccc2O)CC1 (stereo not shown) [Example 19, 2-[(1-Methylpiperidin-4-yloxy)pyridin-2-ylmethyl]phenol, oxalate] | – | < 300 | –
CN1CCC(OC(c2ccc(F)cn2)c2ccc(F)cc2O)CC1.O=C(O)C(=O)O (stereo not shown) [Example 20, 5-Fluoro-2-[(5-fluoropyridin-2-yl)(1-methylpiperidin-4-yloxy)methyl]phenol, oxalate] | 105 | < 300 | –
Cc1ccc(C(OC2CCN(C)CC2)c2ccc(F)cn2)c(O)c1F (stereo not shown) [Example 21, 2-Fluoro-6-[(5-fluoropyridin-2-yl)(1-methylpiperidin-4-yloxy)methyl]-3-methylphenol] | 62 | < 300 | –
Cc1ccc(C(OC2CCN(C)CC2)c2ccc(Cl)cn2)c(O)c1F (stereo not shown) [Example 22, 6-[(5-Chloropyridin-2-yl)(1-methylpiperidin-4-yloxy)methyl]-2-fluoro-3-methylphenol] | 67 | < 30 | –
CN1CCC(OC(c2ccc(Cl)cn2)c2ccc(F)cc2O)CC1 (stereo not shown) [Example 23, 2-[(5-Chloropyridin-2-yl)(1-methylpiperidin-4-yloxy)methyl]-5-fluorophenol] | 57 | < 30 | –
Cc1ccc(C(OC2CCN(C)CC2)c2ccc(F)cn2)c(O)c1.O=C(O)C(=O)O (stereo not shown) [Example 24, 2-[(5-Fluoropyridin-2-yl)(1-methylpiperidin-4-yloxy)methyl]-5-methylphenol, oxalate] | 77 | < 30 | –
Cc1ccc(C(OC2CCN(C)CC2)c2ccc(Cl)cn2)c(O)c1.O=C(O)C(=O)O (stereo not shown) [Example 25, 2-[(5-Chloropyridin-2-yl)(1-methylpiperidin-4-yloxy)methyl]-5-methylphenol, oxalate] | 77 | < 30 | –
Cc1ccc(C(OC2CCN(C)CC2)c2cc(F)ccn2)c(O)c1F (stereo not shown) [Example 26, 2-Fluoro-6-[(4-fluoropyridin-2-yl)(1-methylpiperidin-4-yloxy)methyl]-3-methylphenol] | 64 | < 300 | –
Cc1ccc(C(OC2CCN(C)CC2)c2cccc(I)c2)cc1.O=C(O)C(=O)O (stereo not shown) [Example 27, 4-[(3-Iodophenyl)-p-tolylmethoxy]-1-methylpiperidine, oxalate] | 60 | < 1000 | –
Cc1ccc(C(OC2CCN(C)CC2)c2ccc3ccccc3c2)c(F)c1.O=C(O)C(=O)O (stereo not shown) [Example 29, 4-[(2-Fluoro-4-methylphenyl)naphthalen-2-yl-methoxy]-1-methylpiperidine, oxalate] | 122 | – | < 1000
Cc1ccc(C(OC2CCN(C)CC2)c2ccc(Cl)cc2)c(F)c1.O=C(O)C(=O)O (stereo not shown) [Example 34, 4-[(4-Chlorophenyl)(2-fluoro-4-methylphenyl)methoxy]-1-methylpiperidine, oxalate] | 165 | < 300 | –
CN1CCC(OC(c2ccc(Cl)cc2)c2cccc(C#CCCCCN)c2)CC1 (stereo not shown) [Example 36, 6-{3-[(4-Chlorophenyl)(1-methylpiperidin-4-yloxy)methyl]phenyl}hex-5-ynylamine, dioxalate] | – | < 30 | < 30
CN1CCC(OC(c2cccc(I)c2)c2ccccn2)CC1 (stereo not shown) [Example 37, 2-[(3-Iodophenyl)(1-methylpiperidin-4-yloxy)methyl]pyridine, oxalate] | – | < 1000 | –
